This note sets out measurements from patent US8198215B2, “Methods for protecting seeds” (Sygenta Crop Protection LLC, priority 2005, dated 2012).

Holding throughout (assay type): in vivo
The test system of experiment [1] is Ustilago nuda. Kind of experiment: Example B-6: comparison test with prior art compound C, activity against Ustilago nuda on barley. Conditions: 10 g active ingredient per 100 kg seed; for % Control / % infected heads: barley seed treatment; for % Control: relative to untreated; for % infected heads: untreated 13. The method, then:
(§1) After application of the active ingredient formulated as a flowable concentrate for seed treatment onto U. nuda-infected seeds of winterbarley the seeds are sown in trays filled with field soil. The trays are transferred to a growth room and kept there for 2 days at 20° C. and then for 2 weeks at 2° C. After this period the trial is transferred to a greenhouse where a temperature of 15° C. and a 14 hr light period is provided until flowering. The following assessments are made: number of infected heads. Each number is determined for 200 seeds per treatment (2 replicates a 100 seeds). The activity against Ustilago nuda on barley of the racemic compound of formula Ia according to the invention was compared with racemic compound C (trans/cis-ratio: 10:1), which is described as compound no. 2.40 on pages 6 and 7, table 2, of WO 03/074491. The method used to compare the activity is described under example B-4 above.

For experiment [2], the system named is Ustilago nuda. Put plainly: Example B-5: comparison test with prior art compound B, activity against Ustilago nuda on barley. Conditions: 10 g active ingredient per 100 kg seed; for % Control / % infected heads: barley seed treatment; for % Control: relative to untreated; for % infected heads: untreated 13. On the procedure:
as §1, with “B,” for “C (trans/cis-ratio: 10:1),”, “2.69” for “2.40”, “pages” for “pages 6 and”, “2, and page 16, table 7,” for “2,”

A further experiment relates to Gäumannomyces graminis. Put plainly: Example B-1: activity against Gäumannomyces graminis on wheat, seed treatment. Conditions: winterwheat seed treatment; for % root browning: inoculated field soil, 5 weeks at 17° C., untreated 50; for Control: relative to untreated. On the procedure: After application of the active ingredient formulated as a flowable concentrate for seed treatment onto seeds of winterwheat the seeds are sown in trays filled with field soil. The field soil has been inoculated artificially before sowing with Gäumannomyces graminis by thoroughly mixing mycelium and soil. The trial is kept in a growth room for 5 weeks at 17° C. and a 14 hr light period. The following assessments are made: % root browning. Each number is determined for 30 seeds per treatment (3 replicates a 10 seeds).

In another experiment the test system is Microdochium nivale. Kind of experiment: Example B-2: activity against Microdochium nivale on wheat, seed treatment. Conditions: M. nivale-infected winterwheat seeds, 10 g/100 kg seed. The method, then: After application of the active ingredient formulated as a flowable concentrate for seed treatment onto M. nivale-infected seeds of winterwheat the seeds are sown in trays filled with planting soil. The trial is kept for 4 weeks in a growth room at 4° C. and darkness. Then the temperature is increased to 15° C. and a 12 hr light period is provided. After development of the primary leaf plants are kept at 10° C. and high humidity until the trial is finished. The following assessments are made: number of infected plants. Each number is determined for 100 seeds per treatment (2 replicates a 50 seeds).

The subject of a further experiment is Pyrenophora graminea. Put plainly: Example B-3: activity against Pyrenophora graminea on barley, seed treatment. Conditions: P. graminea-infected winterbarley seeds, 10 g/100 kg seed. On the procedure: After application of the active ingredient formulated as a flowable concentrate for seed treatment onto P. graminea-infected seeds of winterbarley the seeds are sown in trays filled with field soil. The trays are kept in a growth room for 3 weeks at 4° C. After this period the trial is transferred to a greenhouse where a temperature of 12° C. and a 14 hr light period is provided. The following assessments are made: number of infected plants. Each number is determined for 200 seeds per treatment (2 replicates a 100 seeds).

In experiment [3] the test system is Ustilago nuda. Kind of experiment: Example B-4: activity against Ustilago nuda on barley, seed treatment. Conditions: U. nuda-infected winterbarley seeds; for % Control: relative to untreated; for % infected heads: untreated 23.1. The method, then: After application of the active ingredient formulated as a flowable concentrate for seed treatment onto U. nuda-infected seeds of winterbarley the seeds are sown in trays filled with field soil. The trays are transferred to a growth room and kept there for 2 days at 20° C. and then for 2 weeks at 2° C. After this period the trial is transferred to a greenhouse where a temperature of 15° C. and a 14 hr light period is provided until flowering. The following assessments are made: number of infected heads. Each number is determined for 200 seeds per treatment (2 replicates a 100 seeds).

For the molecule `Cn1cc(C(=O)Nc2ccccc2C2CC2C2CCCC2)c(C(F)F)n1` (racemic) [Racemic compound C, reference compound], in the experiment with Ustilago nuda [1], the “% Control” value is listed as 11% and the “% infected heads” value came out at 11.6%.
With `Cn1cc(C(=O)Nc2ccccc2[C@@H]2C[C@H]2c2ccc(Cl)cc2)c(C(F)F)n1` (racemic) [Racemic compound B, reference compound], in the experiment with Ustilago nuda [2], the “% Control” value came out at 9% and the “% infected heads” value came out at 11.9%.
On to `Cn1cc(C(=O)Nc2ccccc2[C@@H]2C[C@H]2C2CC2)c(C(F)F)n1` (racemic) [Racemic compound of formula Ia], for which the “% root browning” value with Gäumannomyces graminis (10 g/100 kg seed) was 28%; in the experiment on Gäumannomyces graminis (33 g/100 kg seed), 20%. Further, the Control with Gäumannomyces graminis (10 g/100 kg seed) amounted to 44; with Gäumannomyces graminis (33 g/100 kg seed), 60; in the experiment with Microdochium nivale (relative to untreated) it was 86.8; with Pyrenophora graminea (relative to untreated), 98.1. For the same molecule, the “% infected plants” value came to 5% in the experiment with Microdochium nivale (untreated 38) and 1% in the experiment on Pyrenophora graminea (untreated 54). The “% Control” value with Ustilago nuda [3] (2.5 g/100 kg seed), in the experiment on Ustilago nuda [3] (5 g/100 kg seed), in the experiment with Ustilago nuda [2] and in the experiment with Ustilago nuda [1] was 100% each time. Besides, the “% infected heads” value in the experiment with Ustilago nuda [3] (2.5 g/100 kg seed), in the experiment on Ustilago nuda [3] (5 g/100 kg seed), with Ustilago nuda [2] and with Ustilago nuda [1] was 0% in each case. Also, in the experiment on Ustilago nuda [2], the “fungicidal action against Ustilago nuda on barley compared with racemic compound B” value is given as “substantially better fungicidal action”. In addition, the “fungicidal action against Ustilago nuda on barley compared with racemic compound C” value with Ustilago nuda [1] was “substantially better fungicidal action”.
